Patent US11524000B2, “Targeting Mcl-1 to enhance DNA replication stress sensitivity for cancer therapy” (Emory University, priority 2017, dated 2022)

Tests used:
Mcl-1/Ku complex = target: T1, Mcl-1/Ku complex (Homo sapiens, UniProt Q07820); experiment: Co-IP of Mcl-1/Ku interaction in H1299 cells; assay type: cell-based; conditions: for Mcl-1/Ku interaction: time course 0, 0.5, 1, 2, 8, or 24 hours
T1 construct: endogenous in cells; host or cells: H1299
Procedure: (§1) To test whether replication stress affects the Mcl-1/Ku interaction, time course experiments were carried out. H1299 cells were treated with Hu or olaparib for various times (0, 0.5, 1, 2, 8, or 24 hours). The Mcl-1/Ku interaction and cell cycle were analyzed simultaneously at each time point. […] These findings indicate that, in addition to S/G2 cell cycle phase, Hu- or olaparib-induced DNA replication stress can also promote Mcl-1/Ku interaction.
(§2) To assess whether Mcl-1 is essential for the effect of MI-223 on HR activity, Mcl-1 was knocked out from H1299 cells using CRISPR/Cas9 to generate Mcl-1-deficient cells. WT Mcl-1, Ku binding-deficient mutant ΔBH1, and empty vector control were exogenously expressed in Mcl-1-knockout H1299 (Mcl1−/− H1299) cells, followed by treatment with MI-223 for 24 hours and analysis of HR efficacy. […] Intriguingly, expression of exogenous WT Mcl-1 but not the Ku binding-deficient ΔBH1 Mcl-1 mutant in Mcl-1-deficient H1299 cells restored the inhibitory effect of MI-223 on HR activity.

[1] = test system: Rad51 foci in H1299 cells; experiment: Rad51 foci immunostaining in H1299 cells; assay type: cell-based; conditions: for induction of Rad51 foci: single agent
Procedure: Rad51 foci were quantified by counting of at least 100 cells from each sample.
(§3) To test whether inhibition of HR by MI-223 sensitizes cancer cells to DNA replication stress, H1299 cells were treated with olaparib or Hu in the absence or presence of MI-223, followed by analysis of Rad51 foci and clonogenic survival. […] Importantly, MI-223 suppression of HR DNA repair activity synergizes with olaparib or Hu to kill H1299 lung cancer cells (FIG. 4H).

H1299 cells [2] = experiment: Cell cycle analysis of H1299 cells during replication stress time course; assay type: cell-based
Procedure: as §1

[3] = test system: RPA2 foci in WT MEF cells; experiment: RPA2 foci immunostaining in WT MEF cells (DNA end resection); assay type: cell-based
Procedure: (§4) HR repair is initiated by DSB end resection that is mediated by the Mre11 complex, whereas Ku tightly bound to DNA ends blocks Mre11 DNA resection. As Mcl-1 negatively regulates Ku function via direct binding, Mcl-1 may reverse the Ku-mediated inhibitory effect on Mre11 complex-mediated DNA end resection. Mre11-Rad50 complex-mediated exonuclease activity was analyzed in the presence of increasing concentrations of Mcl-1 protein using 5′-32P-end-labeled fork DNA as a substrate. […] Ku heterodimer inhibited MR-mediated DNA resection (FIG. 2A, lane 3 vs. lane 2), which was gradually reversed by the addition of increasing concentrations of purified Mcl-1 protein in the presence of a constant amount of Ku protein (FIG. 2A, lane 3 vs. lanes 4-7). BSA was used as control and had no effect on DNA resection. […] In addition, RPA2 is an established reporter of DNA end resection during HR repair in cells. To further test the effect of Mcl-1 on DNA resection in cells, RPA2 foci formation following treatment with Hu, camptothecin (CPT), or IR was compared in WT and Mcl1−/− MEFs. […] RPA2 phosphorylation at Ser4 and Ser8 was analyzed by Western blot using the S4/S8 dual-site phosphospecific RPA2 antibody following exposure of MEF WT or MEF Mcl1−/− cells to IR, CPT, and Hu. […]

[4] = test system: RPA2 phosphorylation at Ser4 and Ser8; experiment: RPA2 Ser4/Ser8 phosphorylation by Western blot in MEF cells; assay type: cell-based
Procedure: as §4

[5] = test system: H1299 lung cancer xenografts; experiment: H1299 lung cancer xenograft tumor growth in nude mice; assay type: in vivo; conditions: for repression of lung cancer in vivo (tumor volume): single agent, 0, 20, 40, 80 and 120 mg/kg/day for 30 days; for suppression of lung tumor growth: vs single agent
Procedure: Nu/Nu nude mice with H1299 lung cancer xenografts were treated with increasing doses of MI-223 (0, 20, 40, 80 and 120 mg/kg/day) for 30 days (n=8 mice per group). Tumor volume was measured once every 2 days. After 30 days, the mice were sacrificed, and the tumors were removed and analyzed. […]

WT Mcl-1 protein = WT Mcl-1 protein (Homo sapiens, UniProt Q07820); experiment: Isothermal titration calorimetry (ITC), MI-223/Mcl-1 binding; conditions: 1-site binding mode, read-out: binding constant (KD)
Procedure: (§5) The binding constant (KD) value was determined by fitting of the titration curve to a 1-site binding mode
(§6) To confirm the binding of MI-223 with Mcl-1, isothermal titration calorimetry (ITC) was used to measure MI-223/Mcl-1 binding. ITC is a direct, label- and immobilization-free technique that measures the binding affinity between proteins and small-molecule ligands that interact with each other, and can analyze binding constant (KD) values in the millimolar and nanomolar range. ITC experiments were performed to assess MI-223/Mcl-1 binding using an auto-iTC200 instrument. […] In addition to the binding constant (KD) value measured by ITC, we also used fluorescence polarization (FP) to measure the inhibitory constant (KI) value using a fluorescence-labeled PUMA BH3 peptide. The PUMA BH3 peptide was chose for this FP assay to evaluate Mcl-1/MI-223 binding because it has been reported to bind specifically to the […] of Mcl-1. […] Based on findings from both ITC (i.e., KD) and FP (i.e., KI), we conclude that MI-223 may directly bind to Mcl-1 with good affinity.

[6] = target: T2, BH1 deletion Mcl-1 mutant protein (ΔBH1) (Homo sapiens, UniProt Q07820, DEL256-265); experiment: Isothermal titration calorimetry (ITC), BH1 deletion mutant; assay type: binding; conditions: ITC assay
T2 construct: made in house
Procedure: as §5, §6

Mcl-1 = Mcl-1 (Homo sapiens, UniProt Q07820); experiment: Fluorescence polarization (FP) assay with fluorescence-labeled PUMA BH3 peptide; conditions: read-out: inhibitory constant (KI) of MI-223/Mcl-1 binding
Procedure: as §6

[7] = test system: HR activity in H1299 DR-GFP cells; experiment: HR repair efficiency in H1299 DR-GFP cells; assay type: cell-based
[8] = test system: HR activity in U2OS DR-GFP cells; experiment: HR repair efficiency in U2OS DR-GFP cells; assay type: cell-based; conditions: dose-dependent
[9] = test system: HR efficacy in Mcl-1-deficient H1299 cells; experiment: HR efficacy in Mcl-1-knockout H1299 cells; assay type: cell-based; conditions: 24 hours
Procedure: as §2

H1299 lung cancer cells = experiment: Colony formation assay (clonogenic survival) in H1299 cells; assay type: cell-based
Procedure: as §3

H1299 cells [10] = experiment: Annexin V binding assay; assay type: cell-based
[11] = test system: H1299 lung cancer xenografts; experiment: IHC staining of Ki-67 and γ-H2AX in xenograft tumor tissues; assay type: in vivo, mice
[12] = Toxicity evaluation in treated xenograft mice (weight, blood chemistry, blood counts, histopathology); assay type: in vivo
[13] = MI-223 in combination with Hu, compared with Hu alone
[14] = MI-223 in combination with olaparib, compared with olaparib alone
[15] = mice treated with MI-223 alone or in combination with olaparib or Hu

T1 sequence (Q07820 whole entry, one chain of several): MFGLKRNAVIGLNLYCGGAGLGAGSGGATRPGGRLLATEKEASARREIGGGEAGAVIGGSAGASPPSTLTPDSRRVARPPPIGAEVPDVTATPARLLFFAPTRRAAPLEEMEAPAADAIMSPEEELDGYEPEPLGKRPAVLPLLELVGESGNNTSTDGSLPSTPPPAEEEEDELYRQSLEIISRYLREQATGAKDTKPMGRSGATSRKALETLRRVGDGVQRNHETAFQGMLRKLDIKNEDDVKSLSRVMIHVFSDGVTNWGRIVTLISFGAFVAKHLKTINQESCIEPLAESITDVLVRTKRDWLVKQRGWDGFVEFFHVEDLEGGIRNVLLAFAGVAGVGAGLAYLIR
T2 sequence (Q07820 with tags, fused parts or gaps DEL256-265): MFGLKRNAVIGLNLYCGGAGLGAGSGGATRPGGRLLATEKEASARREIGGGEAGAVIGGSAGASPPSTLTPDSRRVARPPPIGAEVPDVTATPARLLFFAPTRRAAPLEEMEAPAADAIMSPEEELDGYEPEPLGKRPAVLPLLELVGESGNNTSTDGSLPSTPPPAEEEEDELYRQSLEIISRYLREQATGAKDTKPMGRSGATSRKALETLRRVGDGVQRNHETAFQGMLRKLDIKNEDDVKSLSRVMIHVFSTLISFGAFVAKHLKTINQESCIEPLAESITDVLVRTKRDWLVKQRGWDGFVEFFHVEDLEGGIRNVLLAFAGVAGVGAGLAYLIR
WT Mcl-1 protein, sequence (Q07820 whole entry): as the sequence (Q07820 whole entry, one chain of several) above
Mcl-1, sequence (Q07820 whole entry): as the sequence (Q07820 whole entry, one chain of several) above

NC(=O)NO [Hu, hydroxyurea]
Mcl-1/Ku interaction (Mcl-1/Ku complex): increased at 2, 8, and 24 hours
induction of Rad51 foci [1]: induced Rad51 foci
percentage of cells in S phase (H1299 cells [2]; 24-hour time point): enhanced
percentage of cells in S phase (H1299 cells [2]; short time points (2 and 8 hours)): did not alter
RPA2 foci formation ([3]; Hu 0.2 mM for 24 hours): induced RPA2 foci formation
RPA2 phosphorylation at S4 and S8 ([4]; Hu 0.2 mM for 24 hours): stimulated RPA2 phosphorylation

Cc1ccc(C)c(NC(=O)C(=O)C(C(=O)c2ccc3ccccc3c2)C2OC(=O)c3ccccc32)c1 (stereo not shown) [MI-985, N-(2,5-dimethylphenyl)-4-(naphthalen-2-yl)-2,4-dioxo-3-(3-oxo-1,3-dihydroisobenzofuran-1-yl)butanamide]
repression of lung cancer in vivo (tumor volume) [5]: potently represses lung cancer in vivo

O=C(c1cc(Cc2n[nH]c(=O)c3ccccc23)ccc1F)N1CCN(C(=O)C2CC2)CC1 [olaparib]
Mcl-1/Ku interaction (Mcl-1/Ku complex): increased at 2, 8, and 24 hours
induction of Rad51 foci [1]: induced Rad51 foci
percentage of S phase cells (H1299 cells [2]; time points tested): did not significantly affect

O=C1C=CC=CC1=CNNc1nnc(NNC=C2C=CC=CC2=O)c2ccccc12 [MI-647, 6,6′-((phthalazine-1,4-diylbis(hydrazine-2,1-diyl))bis(methanylylidene))bis(cyclohexa-2,4-dien-1-one)]
repression of lung cancer in vivo (tumor volume) [5]: potently represses lung cancer in vivo

O=[N+]([O-])c1ccccc1C=NNC(=S)NN=Cc1ccccc1[N+](=O)[O-] [MI-361, N′-(2-nitrobenzylidene)-2-(2-nitrobenzylidene)hydrazine-1-carbothiohydrazide]
repression of lung cancer in vivo (tumor volume) [5]: potently represses lung cancer in vivo

CCOC1=CC=CC(=CNn2c(-c3ccccc3Cl)nc3ccccc3c2=O)C1=O [MI-223, 2-(2-chlorophenyl)-3-(((5-ethoxy-6-oxocyclohexa-2,4-dien-1-ylidene)methyl)amino)quinazolin-4(3H)-one]
Kd (WT Mcl-1 protein): 161 ± 7 nM
binding to ΔBH1 Mcl-1 mutant protein [6]: failed to bind
Ki (Mcl-1): 193 ± 4.3 nM
disruption of Mcl-1/Ku complex (Mcl-1/Ku complex; increasing concentrations, 24 hours, co-IP with Mcl-1 antibody): disrupted the Mcl-1/Ku complex
HR activity ([7]; H1299 DR-GFP cells, dose-dependent): potently inhibited HR activity
HR efficacy ([7]; H1299 parental cells, 24 hours): dose-dependent reduction of HR efficacy
HR activity [8]: potently inhibited HR activity
HR efficacy [9]: no significant further effect
inhibition of Rad51 foci formation ([1]; olaparib- or Hu-induced foci, MI-223 4 μM, 24 hours): strongly inhibited Rad51 foci formation
synergy in cell killing (colony formation) (H1299 lung cancer cells; MI-223 in combination with Hu): synergizes
synergy in cell killing (colony formation) (H1299 lung cancer cells; MI-223 in combination with olaparib): synergizes
apoptotic cell death (H1299 cells [10]): did not induce significant apoptotic cell death
suppression of lung tumor growth ([5]; MI-223 40 mg/kg/d in combination with Hu 500 mg/kg): significantly greater efficacy than a single agent alone
suppression of lung tumor growth ([5]; MI-223 40 mg/kg/d in combination with olaparib 40 mg/kg/d, 3 weeks): significantly greater efficacy than a single agent alone
repression of lung cancer in vivo (tumor volume) [5]: potently represses lung cancer in vivo
Ki-67 in tumor tissues [11, 13]: significant reduction of Ki-67
γ-H2AX in tumor tissues [11, 13]: increased levels of γ-H2AX
Ki-67 in tumor tissues [11, 14]: significant reduction of Ki-67
γ-H2AX in tumor tissues [11, 14]: increased levels of γ-H2AX
histopathologic evaluation of normal tissues ([12]; brain, heart, lung, liver, spleen, kidney, and intestine): no evidence of normal tissue toxicity
increase in alanine transaminase, aspartate transaminase, or blood urea nitrogen [12, 15]: no significant
reduction in wbcs, rbcs, hemoglobin, or platelets [12, 15]: no significant
weight loss [12, 15]: no significant weight loss

CC[C@@]1(O)C(=O)OCc2c1cc1n(c2=O)Cc2cc3ccccc3nc2-1 [CPT, camptothecin]
RPA2 foci formation ([3]; CPT 1 μM for 1 hour): induced RPA2 foci formation
RPA2 phosphorylation at S4 and S8 ([4]; CPT 1 μM for 1 hour): stimulated RPA2 phosphorylation
